Earlier results in paper PMC6882435, “Preparation and study of two kinds of ophthalmic nano-preparations of everolimus” (Drug Delivery, 2019).

Columns and labels:
[1] = set-up: method as in Iwase & Maitani, 2012; conditions: raw material at room temperature; ref Iwase & Maitani, 2012
[2] = set-up: method as in Baspinar et al., 2008; Tedesco-Silva et al., 2019; conditions: patients that take the drug (systemic, oral); ref Baspinar et al., 2008; Tedesco-Silva et al., 2019

In the case of `CO[C@H]1C[C@@H]2CC[C@@H](C)[C@@](O)(O2)C(=O)C(=O)N2CCCC[C@H]2C(=O)O[C@H]([C@H](C)C[C@@H]2CC[C@@H](OCCO)[C@H](OC)C2)CC(=O)[C@H](C)/C=C(\C)[C@@H](O)[C@@H](OC)C(=O)[C@H](C)C[C@H](C)/C=C/C=C/C=C/1C` [Everolimus, 4 O-O-(2-hydroxyethyl)-rapamycin], the solubility [1] is listed as “about 9.6 μg·mL^−1” and the “patients with side effects such as thrombocytopenia and dyslipidemia” value [2] is listed as “about 30%”.
